Measurements taken from article PMC3282623, “High-pressure-induced water penetration into 3-isopropylmalate dehydrogenase” (Acta Crystallographica Section D: Biological Crystallography, 2012).

Target: T1, SoIPMDH (3-isopropylmalate dehydrogenase from Shewanella oneidensis MR-1) (Shewanella oneidensis, UniProt Q8E9N3)
T1 construct: gene leuB; N-terminally His6-tagged (pQE-80L, BamHI/HindIII), expressed in E. coli BL21-CodonPlus(DE3)-RIL; tag removal not mentioned; homodimer
Test: X-ray crystallography of the complex
Type: binding
Conditions: active site, closed dimer; calcium in active site; 10 mM IPM, 10 mM MgCl2, 200 mM calcium acetate, pH 7.0, room temperature, 0.1 MPa (also 160-650 MPa: 3vl2, 3vl3, 3vl4, 3vl6, 3vl7)

T1 sequence (Q8E9N3 2-364): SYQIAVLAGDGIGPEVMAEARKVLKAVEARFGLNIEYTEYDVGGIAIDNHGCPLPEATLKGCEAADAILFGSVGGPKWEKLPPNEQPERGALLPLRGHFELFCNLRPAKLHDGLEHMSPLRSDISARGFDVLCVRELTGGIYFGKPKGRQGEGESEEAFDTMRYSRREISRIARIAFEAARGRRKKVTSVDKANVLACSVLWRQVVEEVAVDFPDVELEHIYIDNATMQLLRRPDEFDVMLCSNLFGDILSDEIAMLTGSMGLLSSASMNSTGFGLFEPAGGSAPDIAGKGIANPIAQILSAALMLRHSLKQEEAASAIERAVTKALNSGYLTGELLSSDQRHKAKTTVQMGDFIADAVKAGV

## CC(C)[C@H](C(=O)O)[C@@H](O)C(=O)O [3-isopropylmalate]
  X-ray crystallography of the complex: the SoIPMDH dimer was crystallized in complex with its substrate, the IPM molecule
